For this test, the system named is HIV-1. An excerpt:
The timing of HIV-1 infection was changed to allow for a stabilization of engraftment prior to assessment of viral replication.
HIV-1 down-regulates cell-surface expression of CD4 (Chen et al., 1996). […] Finally, tissue sections of thymi were directly examined for human T cells (using anti-CD3 antibody) and HIV-1 p24 antigen.
The MLNs are closest to the site of HIV-1 infection (i.p), while the PLNs are further away.
Rag2^−/−γc^−/− mice on a BALB/c background (provided by M. Ito; Central Institute for Experimental Animals, Kawasaki, Japan) were bred and maintained under specific pathogen-free conditions in accordance with the guidelines of the animal facility at the Institute for Research in Biomedicine. CL2 MBP (clodronate) was from Roche Diagnostics (Mannheim, Germany). Preparation of liposomes containing CL2 MBP was done as described previously (Van Rooijen and Sanders, 1994). 6-10 week-old mice received 100 ul of clodronate liposomes intraperitoneally (i.p.) 24 hours prior to irradiation using a single sublethal dose of 4.0 Gray (Gy) from a Cesium 137 source (Biobeam 8000, STS GmbH, Braunschweig, Germany) at 3.75 Gy/min. […] CD4^+ T cell engraftment and maintenance in mice was measured by flow cytometry. To obtain peripheral blood cells and plasma, mice were bled from the retro-orbital venous sinus under anesthesia and red blood cells were lysed. When sacrificed, single cell suspensions from organs were prepared. For FACS analysis monoclonal antibodies against the following antigens were used: CD3 (UCHT1), CD4 (13B8.2), CD8 (B9.11), p24 (clone KC57) (all Immunotech/Beckman Coulter, Marseille, France), CD45 (HI30) (Caltag, Burlingame, Calif.). Intracellular staining for p24 was performed on single cell suspensions from mesenteric lymph nodes and thymus following staining with anti-CD3 antibody. Cells were washed, permeabilized, and fixed by treatment with BD Cytofix/Cytoperm (BD Pharmingen) and stained with anti-p24 antibody in BD Permwash solution (BD Pharmingen) following the manufacturer's instructions. Plasma HIV RNA concentrations were determined by Cobas Amplicor RT-PCR assay (Roche Diagnostics, Basel, Switzerland). Immunohistochemical stainings were performed as previously described (Baenziger et al., 2006). To assess nonspecific binding, tissue from untransplanted and uninfected transplanted mice was stained as controls.
Rag2^−/−γc^−/− mice on a BALB/c background (provided by M. Ito; Central Institute for Experimental Animals, Kawasaki, Japan) were bred and maintained under specific pathogen-free conditions in accordance with the guidelines of the animal facility at the Institute for Research in Biomedicine (Bellinzona) and the Swiss Federal Veterinary Office (Bern). […] CD4^+ T cell engraftment and maintenance in mice was measured by flow cytometry. […]

Like-named read-outs stand apart in the source and are kept apart here. Marks after values point to notes of the source that are not given here.

In the case of “hT5Cyp: human TRIM5α fused at serine 322 to human cyclophilin A, SEQ ID NO:12”, the “p24^+ transduced human T cells” value is recorded as “Few if any” (MLN or PLN, CCR5-tropic HIV-1) and “Few if any” (thymi or mesenteric lymph nodes). Moreover, the mean viral load (n=8 per group) is listed as 1.6×10^5 (+/−1.1×10^5) copies viral RNA/ml plasma. Under “thymi and lymph nodes”, the “down-regulation of cell surface CD4” value is “prevented the down-regulation of cell surface CD4”.

For the origin of these results see patent US8835617B2, “Polynucleotides encoding a human TRIM-Cyp fusion polypeptide, compositions thereof, and methods of using same” (priority 2008, dated 2014).
